Data taken from US5770382A, “Tricyclic retinoids, methods for their production and use” (Ligand Pharmaceuticals, Inc., priority 1995, dated 1998).
pEC50: −log10 of the molar value. Entries after “also recorded” stand apart in the source; their conditions may differ.

Key:
RAR and RXR receptors = assay: Co-transfection assay, summary for RARs and RXRs; format: cell-based; settings: for potency profile in comparison to 9-cis retinoic acid (in words): versus 9-cis
Description: (§1) Utilizing the "cis-trans" or "co-transfection" assay described by Evans et al., Science, 240:889-95 (May 13, 1988), the disclosure of which is herein incorporated by reference, the retinoid compounds of the present invention were tested and found to have strong, specific activity as either selective RAR agonists, selective RXR agonists, or as pan-agonist activators of both RAR and RXR receptors. This assay is described in further detail in U.S. Pat. Nos. 4,981,784 and 5,071,773, the disclosures of which are incorporated herein by reference.
(§2) The co-transfection assay provides a method for identifying functional agonists which mimic, or antagonists which inhibit, the effect of native hormones, and quantifying their activity for responsive IR proteins. In this regard, the co-transfection assay mimics an in vivo system in the laboratory. Importantly, activity in the co-transfection assay correlates very well with known in vivo activity, such that the co-transfection assay functions as a qualitative and quantitative predictor of a tested compounds Ln vivo pharmacology. See, e.g., T. Berger et al. 41 J. Steroid Biochem. Molec. Biol. 733 (1992), the disclosure of which is herein incorporated by reference.
(§3) In the co-transfection assay, a cloned cDNA for an IR (e.g., human RARα, RARβ, RXRγ) under the control of a constitutive promoter (e.g., the SV 40 promoter) is introduced by transfection (a procedure to induce cells to take up foreign genes) into a background cell substantially devoid of endogenous IRs. This introduced gene directs the recipient cells to make the IR protein of interest. A second gene is also introduced (co-transfected) into the same cells in conjunction with the IR gene. This second gene, comprising the cDNA for a reporter protein, such as firefly luciferase (LUC), controlled by an appropriate hormone responsive promoter containing a hormone response element (HRE). This reporter plasmid functions as a reporter for the transcription-modulating activity of the target IR. Thus, the reporter acts as a surrogate for the products (mRNA then protein) normally expressed by a gene under control of the target receptor and its native hormone.
(§4) The co-transfection assay can detect small molecule agonists or antagonists of target IRs. Exposing the transfected cells to an agonist ligand compound increases reporter activity in the transfected cells. This activity can be conveniently measured, e.g., by increasing luciferase production, which reflects compound-dependent, IR-mediated increases in reporter transcription. […] . Increasing concentrations of a suspected antagonist will decrease the reporter signal (e.g., luciferase production). The co-transfection assay is therefore useful to detect both agonists and antagonists of specific IRs. Furthermore, it determines not only whether a compound interacts with a particular IR, but whether this interaction mimics (agonizes) or blocks (antagonizes) the effects of the native regulatory molecules on target gene expression, as well as the specificity and strength of this interaction.
To determine RAR and/or RXR agonist activity of the compounds of the present invention, the CV-1 cells were transiently transfected by calcium phosphate coprecipitation according to the procedure of Berger et al., 41 J.Steroid Biochem. Mol. Biol., 733 (1992) with the following receptor expressing plasmids: pRShRARα: Giguere et al., 330 Nature, 624 (1987); pRShRARβ and pRShRARγ, Ishikawa et al., 4 Mol. Endocrin., 837 (1990); pRShRXRα, Mangelsdorf et al., 345 Nature, 224 (1990); and pRSmRXRβ and pRSmRXRγ, Mangelsdorf et al., 6 Genes & Devel., 329 (1992), the disclosures of which are herein incorporated by reference.

RARs = assay: Co-transfection assay, summary for the RARs; format: cell-based, human
Description: as §1, §2, §3
as §4, with “Furthermore, it determines not only whether a compound interacts with a particular IR, but whether this interaction mimics (agonizes) or blocks (antagonizes) the effects of the native regulatory molecules on target gene expression, as well as the specificity and strength of this interaction.” left out

RXRα = biological target: T1, RXRα (Homo sapiens, UniProt P19793); assay: Co-transfection assay, RXRα agonist activity; format: cell-based; settings: CV-1 cells, 40 hours; read-out: RXRα Pot (potency, EC50)
T1 construct: expressed in transfected cells; host or cells: CV-1 (African green monkey kidney fibroblasts)
T1 sequence (P19793 1-462): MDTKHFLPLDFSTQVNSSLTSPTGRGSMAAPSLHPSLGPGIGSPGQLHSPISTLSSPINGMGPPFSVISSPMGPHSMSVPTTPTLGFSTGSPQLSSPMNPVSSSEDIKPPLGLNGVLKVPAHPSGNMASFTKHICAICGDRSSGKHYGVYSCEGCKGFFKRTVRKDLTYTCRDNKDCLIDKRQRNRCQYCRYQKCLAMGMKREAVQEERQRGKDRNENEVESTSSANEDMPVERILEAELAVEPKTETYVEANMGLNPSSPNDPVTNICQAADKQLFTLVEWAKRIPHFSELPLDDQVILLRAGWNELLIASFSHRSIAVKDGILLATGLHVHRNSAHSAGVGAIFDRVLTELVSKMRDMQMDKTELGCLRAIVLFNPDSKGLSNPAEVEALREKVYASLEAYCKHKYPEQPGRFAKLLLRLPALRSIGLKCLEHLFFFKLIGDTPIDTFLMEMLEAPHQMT

[1] = test system: ornithine decarboxylase (ODC); settings: literature; cited from earlier work

SMILES | agonist type on RAR and RXR receptors (in words) (RAR and RXR receptors) | potency profile in comparison to 9-cis retinoic acid (in words) (RAR and RXR receptors) | RAR activity / selectivity (in words) (RARs) | other results
CC(/C=C/CC1CCCc2cc3c(cc21)C(C)(C)CCC3(C)C)=C\C(=O)O (racemic) [Compound 124b, (2E,4E)-3-Methyl-6-(1,2,3,4,5,6,7,8-octahydro-5,5,8,8-tetramethylanthracen-1-yl)hexa-2,4-dienoic acid] | pan-agonist | superior potency profiles | – | –
CC(/C=C/C=C1/CCCc2cc3c(cc21)C(C)(C)CCC3(C)C)=C\C(=O)O [Compound 101b, (2E,4E)-3-Methyl-6-[(Z)-3,4,5,6,7,8-hexahydro-5,5,8,8-tetramethyl-2H-anthracen-1-ylidene]hexa-2,4-dienoic acid] | pan-agonist | superior potency profiles | extremely potent RAR active | –
CC(/C=C/C=C1\CCCc2cc3c(cc21)C(C)(C)CCC3(C)C)=C\C(=O)O [Compound 109b, (2E,4E)-3-Methyl-6-[(E)-3,4,5,6,7,8-hexahydro-5,5,8,8-tetramethyl-2H-anthracen-1-ylidene]hexa-2,4-dienoic acid] | – | – | extremely potent RAR active; also recorded: RAR selective | –
CC(/C=C/C=C1\CCOc2cc3c(cc21)C(C)(C)CCC3(C)C)=C\C(=O)O [Compound 119b, (2E,4E)-3-Methyl-6-[(E)-2,3,6,7,8,9-hexahydro-6,6,9,9-tetramethyl-benzo[g]chromen-4-ylidene]hexa-2,4-dienoic acid] | – | – | extremely potent RAR active; also recorded: RAR selective | –
CC(/C=C/C=C1/CCOc2cc3c(cc21)C(C)(C)CCC3(C)C)=C\C(=O)O [Compound 144b] | pan-agonist | superior potency profiles | extremely potent RAR active | –
CCN1CC\C(=C/C=C/C(C)=C/C(=O)O)c2cc3c(cc21)C(C)(C)CCC3(C)C [Compound 147b, (2E,4E)-3-methyl-6-[(E)1-ethyl-6,6,9,9-tetramethyl-2,3,6,7,8,9-hexahydro-1H-benzo[g]quinolin-4-ylidene]hexa-2,4-dienoic acid] | – | – | – | pEC50 (RXRα): < 5.00
CC1=C(/C=C/C(C)=C/C=C/C(C)=C/C(=O)O)C(C)(C)CCC1 [retinoic acid] | – | – | – | inhibition of TPA induction of ODC (in words) [1]: inhibits this induction of ODC by TPA
